From patent US10821115B2, “Compounds that inhibit Mcl-1 protein” (priority 2017, dated 2020)
Read-outs that look alike come from different tables or passages of the source.

Columns and labels:
[1] = target: recombinant human Mcl-1 (residues 171-327) / Bim interaction (Homo sapiens (Human), UniProt Q07820); assay: biochemical; format: binding; settings: read-out: Mcl-1 HTRF IC50
[2] = system: human multiple myeloma cell line, OPM-2; assay: Cell viability assay (OPM-2 10 FBS), CellTiter-Glo; format: cell-based
Outline: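 OPM-2 cells at 3000 cells/well in RPMI 1640 with 10% FBS were exposed to serially diluted compounds for 16 h at 37 °C, 5% CO2.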

[3] = TR-FRET, Mcl-1(171-327) / biotin-Bim (51-76)
[4] = Homo sapiens, OPM-2, 16 h, read-out: OPM-2 10% FBS IC50 IP, OPM-2 cells, 10% FBS, 16 h, CellTiter-Glo
[5] = 0.1 nM Mcl-1(171-327), 0.05 nM biotin-Bim (51-76)
[6] = Homo sapiens, OPM-2, 16 h, read-out: OPM-2 10% FBS IC50 IP, OPM-2 cells, 10% FBS, 16 h incubation
[7] = read-out: OPM-2 10% FBS IC50 IP, OPM-2 cells, 10% FBS, 16 h, CellTiter-Glo

Chain of recombinant human Mcl-1 (residues 171-327) / Bim interaction (Q07820 171-327): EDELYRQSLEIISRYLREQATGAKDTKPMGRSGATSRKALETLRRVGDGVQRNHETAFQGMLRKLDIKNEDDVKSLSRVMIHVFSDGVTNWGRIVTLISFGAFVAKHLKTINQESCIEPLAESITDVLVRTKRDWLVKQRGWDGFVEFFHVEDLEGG

SMILES | IC50 [1, 3] [nM] | IC50 [2, 4] [nM] | also measured
C=C(F)C[C@@]1(O)/C=C/C[C@H](C)[C@@H](C)S(=O)(=O)NC(=O)c2ccc3c(c2)N(C[C@@H]2CC[C@H]21)C[C@@]1(CCCc2cc(Cl)ccc21)CO3 [Example 100564, (1S,3′R,6′R,7′R,8′E,11′S,12′R)-6-chloro-7′-(2-fluoro-2-propen-1-yl)-7′-hydroxy-11′,12′-dimethyl-3,4-dihydro-2H,15′H-spiro[naphthalene-1,22′-[20]oxa[13]thia[1,14]diazatetracyclo [14.7.2.0~3,6~.0~19,24~]pentacosa[8,16,18,24]tetraen]-15′-one 13′,13′-dioxide] | 0.333 | 1430 | 
CCCN1CCN(C[C@@]2(OC)/C=C/C[C@H](C)[C@@H](C)S(=O)(=O)NC(=O)c3ccc4c(c3)N(C[C@@H]3CC[C@H]32)C[C@@]2(CCCc3cc(Cl)ccc32)CO4)CC1 [Example 97, (1S,3′R,6′R,7′R,8′E,11′S,12′R)-6-chloro-7′-methoxy-11′,12′-dimethyl-7′-((4-propyl-1-piperazinyl)methyl)-3,4-dihydro-2H,15′H-spiro[naphthalene-1,22′-[20]oxa[13]thia[1,14]diazatetracyclo [14.7.2.0~3,6~.0~19,24~]pentacosa[8,16,18,24]tetraen]-15′-one 13′,13′-dioxide] |  |  | IC50 [1, 5]: 0.299 nM; IC50 [2, 6]: 228 nM
CO[C@@]1(CC(=O)N(C)C)/C=C/C[C@H](C)[C@@H](C)S(=O)(=O)NC(=O)c2ccc3c(c2)N(C[C@@H]2CC[C@H]21)C[C@@]1(CCCc2cc(Cl)ccc21)CO3 [Example 100002, 2-((1 S,3′R,6′R,7′S,8′E,11′S, 12′R)-6-chloro-7′-methoxy-11′,12′-dimethyl-13′,13′-dioxido-15′-oxo-3,4-dihydro-2H-spiro[naphthalene-1,22′-[20]oxa[13]thia[1,14]diazatetracyclo[14.7.2.0-3,6˜.0˜19,24˜]pentacosa[8,16,18,24]tetraen]-7′-yl)-N,N-dimethylacetamide] | 0.071 |  | IC50 [2, 7]: 41 nM
CO[C@@]1(Cc2ncco2)/C=C/C[C@H](C)[C@@H](C)S(=O)(=O)NC(=O)c2ccc3c(c2)N(C[C@@H]2CC[C@H]21)C[C@@]1(CCCc2cc(Cl)ccc21)CO3 [Example 100508, (1S,3′R,6′R,7′S,8′E,11′S,12′R)-6-chloro-7′-methoxy-11′,12′-dimethyl-7′-(1,3-oxazol-2-ylmethyl)-3,4-dihydro-2H,15′H-spiro[naphthalene-1,22′-[20]oxa[13]thia[1,14]diazatetracyclo [14.7.2.0~3,6~.0~19,24~]pentacosa[8,16,18,24]tetraen]-15′-one 13′,13′-dioxide] | 2.73 | 2500 | 
C[C@@H]1[C@@H](C)CCC[C@@](O)(CN=[N+]=[N-])[C@@H]2CC[C@H]2CN2C[C@@]3(CCCc4cc(Cl)ccc43)COc3ccc(cc32)C(=O)NS1(=O)=O (single isomer, unassigned) [Example 506] |  |  | IC50 [1, 5]: 3.8 nM; IC50 ([2]; read-out: OPM-2 10% FBS IC50 IP, OPM-2 cells, 10% FBS, 16 h incubation): 7430 nM
CO[C@]1(CN2CCCN(C(C)C)CC2)/C=C/C[C@H](C)[C@@H](C)S(=O)(=O)NC(=O)c2ccc3c(c2)N(C[C@@H]2CC[C@H]21)C[C@@]1(CCCc2cc(Cl)ccc21)CO3 [Example 327, (1S,3′R,6′R,7′R,8′E,11′S,12′R)-6-chloro-7′-methoxy-11′,12′-dimethyl-7′-((4-(1-methylethyl)-1,4-diazepan-1-yl)methyl)-3,4-dihydro-2H,15′H-spiro[naphthalene-1,22′-[20]oxa[13]thia[1,14]diazatetracyclo [14.7.2.0~3,6~.0~19,24~]pentacosa[8,16,18,24]tetraen]-15′-one 13′,13′-dioxide] |  |  | IC50 [1, 5]: 0.214 nM; IC50 [2, 6]: 174 nM
C[C@@H]1[C@@H](C)CCC[C@](O)(C[C@@H]2CCCN(C)C2)[C@@H]2CC[C@H]2CN2C[C@@]3(CCCc4cc(Cl)ccc43)COc3ccc(cc32)C(=O)NS1(=O)=O (single isomer, unassigned) [Example 100400] | 0.838 | 1320 | 
CO[C@@]1(c2nccn2C)/C=C/C[C@H](C)[C@@H](C)S(=O)(=O)NC(=O)c2ccc3c(c2)N(C[C@@H]2CC[C@H]21)C[C@@]1(CCCc2cc(Cl)ccc21)CO3 (single isomer, unassigned) [Example 100556] | 0.113 | 734 | 
C[C@@H]1[C@@H](C)C/C=C/[C@@](O)([C@@H](C)C(=O)N(C)C)[C@@H]2CC[C@H]2CN2C[C@@]3(CCCc4cc(Cl)ccc43)COc3ccc(cc32)C(=O)NS1(=O)=O (single isomer, unassigned) [Example 100126] | 0.183 |  | IC50 [2, 7]: 41 nM
C[C@@H]1[C@@H](C)C/C=C/[C@@]2(CCCO2)[C@@H]2CC[C@H]2CN2C[C@@]3(CCCc4cc(Cl)ccc43)COc3ccc(cc32)C(=O)NS1(=O)=O (single isomer, unassigned) [Example 100159] | 0.559 | 591 | 
C[C@@H]1[C@@H](C)C/C=C/[C@](O)(Cc2nccs2)[C@@H]2CC[C@H]2CN2C[C@@]3(CCCc4cc(Cl)ccc43)COc3ccc(cc32)C(=O)NS1(=O)=O [Example 100245, (1S,3′R,6′R,7′R,8′E,11′S,12′R)-6-chloro-7′-hydroxy-11′,12′-dimethyl-7′-(1,3-thiazol-2-ylmethyl)-3,4-dihydro-2H,15′H-spiro[naphthalene-1,22′-[20]oxa[13]thia[1,14]diazatetracyclo [14.7.2.0~3,6~.0~19,24~]pentacosa[8,16,18,24]tetraen]-15′-one 13′,13′-dioxide] |  |  | IC50 [1]: 1.71 nM; IC50 [2, 7]: 1980 nM
CO[C@@]1(c2cccc(F)n2)/C=C/C[C@H](C)[C@@H](C)S(=O)(=O)NC(=O)c2ccc3c(c2)N(C[C@@H]2CC[C@H]21)C[C@@]1(CCCc2cc(Cl)ccc21)CO3 (single isomer, unassigned) [Example 100339] | 0.186 | 1380 | 
C[C@@H]1[C@@H](C)CCC[C@](C)(CN2CCN3CCOC[C@@H]3C2)[C@@H]2CC[C@H]2CN2C[C@@]3(CCCc4cc(Cl)ccc43)COc3ccc(cc32)C(=O)NS1(=O)=O [Example 100300, (1S,3′R,6′R,7′S,11′S,12′R)-6-chloro-7′-((9aS)-hexahydropyrazino[2,1-c][1,4]oxazin-8(1H)-ylmethyl)-7′,11′,12′-trimethyl-3,4-dihydro-2H,15′H-spiro[naphthalene-1,22′-[20]oxa[13]thia[1,14]diazatetracyclo [14.7.2.0~3,6~.0~19,24~]pentacosa[16,18,24]trien]-15′-one 13′,13′-dioxide] | 0.109 | 235 | 
CO[C@@]1(c2nccn2C)CCC[C@H](C)[C@@H](C)S(=O)(=O)NC(=O)c2ccc3c(c2)N(C[C@@H]2CC[C@H]21)C[C@@]1(CCCc2cc(Cl)ccc21)CO3 [Example 100230, (1S,3′R,6′R,7′S,11′S,12′R)-6-chloro-7′-methoxy-11′,12′-dimethyl-7′-(1-methyl-1H-imidazol-2-yl)-3,4-dihydro-2H,15′H-spiro[naphthalene-1,22′-[20]oxa[13]thia[1,14]diazatetracyclo [14.7.2.0~3,6~.0~19,24~]pentacosa[16,18,24]trien]-15′-one 13′,13′-dioxide] | 0.473 | 544 | 
CO[C@@]1(Cc2cc(C)on2)/C=C/C[C@H](C)[C@@H](C)S(=O)(=O)NC(=O)c2ccc3c(c2)N(C[C@@H]2CC[C@H]21)C[C@@]1(CCCc2cc(Cl)ccc21)CO3 [Example 100552, (1S,3′R,6′R,7′S,8′E,11′S,12′R)-6-chloro-7′-methoxy-11′,12′-dimethyl-7′-((5-methyl-1,2-oxazol-3-yl)methyl)-3,4-dihydro-2H,15′H-spiro[naphthalene-1,22′-[20]oxa[13]thia[1,14]diazatetracyclo [14.7.2.0~3,6~.0~19,24~]pentacosa[8,16,18,24]tetraen]-15′-one 13′,13′-dioxide] | 0.065 | 957 | 
COCC[C@@H]1[C@@H](C)C/C=C/[C@@](CN2CCN(C3(C)COC3)CC2)(OC)[C@@H]2CC[C@H]2CN2C[C@@]3(CCCc4cc(Cl)ccc43)COc3ccc(cc32)C(=O)NS1(=O)=O [Example 192, (1S,3′R,6′R,7′R,8′E,11′S,12′R)-6-chloro-7′-methoxy-12′-(2-methoxyethyl)-11′-methyl-7′-((4-(3-methyl-3-oxetanyl)-1-piperazinyl)methyl)-3,4-dihydro-2H,15′H-spiro[naphthalene-1,22′-[20]oxa[13]thia[1,14]diazatetracyclo [14.7.2.0~3,6~.0~19,24~]pentacosa[8,16,18,24]tetraen]-15′-one 13′,13′-dioxide] |  |  | IC50 [1, 5]: 0.078 nM; IC50 [2, 6]: 65 nM
C[C@@H]1[C@@H](C)C/C=C/[C@@](O)(CC(=O)N2CC(F)(F)C2)[C@@H]2CC[C@H]2CN2C[C@@]3(CCCc4cc(Cl)ccc43)COc3ccc(cc32)C(=O)NS1(=O)=O [Example 100297, (1S,3′R,6′R,7′S,8′E,11′S,12′R)-6-chloro-7′-(2-(3,3-difluoro-1-azetidinyl)-2-oxoethyl)-7′-hydroxy-11′,12′-dimethyl-3,4-dihydro-2H,15′H-spiro[naphthalene-1,22′-[20]oxa[13]thia[1,14]diazatetracyclo [14.7.2.0~3,6~.0~19,24~]pentacosa[8,16,18,24]tetraen]-15′-one 13′,13′-dioxide] | 0.115 | 168 | 
